How the values were obtained:
[1] = tested on: peripheral blood mononuclear cells (PBMC); assay: IFNγ ELISPOT assay with HLA-A2 restricted TDO peptides; type: cell-based, human; conditions: for TDO responses shown by ELISPOT vs control peptide, DFR method: 3*10^5 cells/well, control peptide HIVpol463-476, examples; for IFNγ producing T-cell in response to the peptide: PBMC from six cancer patients, after one round of in vitro stimulation; for ex vivo IFNγ ELISPOT response: directly ex vivo, PBMC from different cancer patients, 9*10^5 cells/well
CD4+ T cells in PBMC = assay: Cytokine ELISPOT (IFNγ, TNFα, IL-10, IL-17A) with long TDO peptides; type: cell-based, human; conditions: for Peptide-specific CD4 T-cell responses: ELISPOT, cancer patients and healthy donors; for IFNγ producing CD4+ T cells, cancer patients vs healthy donors: IFNγ ELISPOT; for IL-10 production in response to peptide stimulation: IL-10 ELISPOT; for IL-17 production in response to peptide stimulation: IL-17 ELISPOT; for cells producing TNFα in response to peptide, cancer patients vs healthy donors: TNFα ELISPOT
T2 cells = assay: 51Cr-release cytotoxicity assay, peptide-pulsed T2 cells; type: cell-based; conditions: short peptides added immediately before the assay, long peptides loaded overnight
Method: Assessment of the cytotoxic capability of the generated T-cell lines was evaluated using a conventional chromium release assay as described. Briefly, target tumor cell lines were labeled with 100 μCi ^51Cr (Perkin Elmer, Skovlunde, Denmark) in 100 μl RPMI 1640 (Gibco) supplied with 10% FCS (Gibco) for one hour at 37° C. After washing of target cells, they were incubated with effector cells at different effector:target (E:T) ratios for four hours in the incubator. Subsequently, the amount of radioactivity in the supernatant was measured using a gamma cell counter (Perkin Elmer Wallac Wizard 1470 Automatic gamma counter).

HLA-A2 = target: T1, HLA-A2 (Homo sapiens, UniProt P04439, D140Y/D185E/D98H/E176V/E277Q/G131W/G231S/I119V/I121R/I166T/I218V/N151K/N90K/P208A/P217A/Q86G/Q94H/R138H/R169H); conditions: positive control peptides, well described; cited from earlier work
T1 construct: made in house; host or cells: E. coli

[2] = tested on: TDO-specific CD8+ T cells; assay: Tetramer staining (flow cytometry) of TDO-specific CD8+ T cells; type: cell-based, human; conditions: PBMC from a cancer patient repeatedly stimulated with autologous DC loaded with the peptide (5- or 4-times)
Method: DC were generated by adherence of PBMCs to the plastic surface of a well for one hour in RPMI 1640 (Gibco) before removal of non-adherent cells. The adherent cells were treated with 1000 U/ml GM-CSF (PeproTech, London, UK) and 250 U/ml IL-4 (Peprotech) in X-vivo (Lonza, Copenhagen, Denmark) supplied with 5% human AB serum (Sigma-Aldrich) and placed in a 37° C., 5% CO2 and humidified environment. On day six, maturation cocktail consisting of 1000 U/ml of each TNFα, IL-1P and IL-6 and 1 μg/ml PGE2 (Peprotech) was added to the cells. On day eight, mature DCs were harvested, loaded with 100 μM TDO peptide in X-vivo 15 (Lonza) for four hours in the incubator. After washing, peptide-loaded DCs were mixed with autologous PBLs in X-vivo 15 (Lonza) supplied with 5% human AB serum (Sigma-Aldrich). […] Cultures were stimulated this way twice seven days apart. Further stimulations were performed using autologous, irradiated (25Gy) PBLs loaded with 100 μM TDO peptide. The day after stimulation with PBLs the cultures were supplied with IL-2 (Proleukin; Novartis, Copenhagen, Denmark) to a final concentration of 40 U/ml. Peptide loaded MHC tetramers were […] with 2.5 μl of each phycoerytrhin (PE). […] The stainings were performed in 50 μl PBS (Lonza) supplied with 2% FCS (Gibco) for 15 minutes in the incubator. […]

Sequence	TDO responses shown by ELISPOT vs control peptide, DFR method [1]	IFNγ producing T-cell in response to the peptide [1]	Peptide-specific CD4 T-cell responses (CD4+ T cells in PBMC)	IFNγ producing CD4+ T cells, cancer patients vs healthy donors (CD4+ T cells in PBMC)	IL-10 production in response to peptide stimulation (CD4+ T cells in PBMC)	IL-17 production in response to peptide stimulation (CD4+ T cells in PBMC)	cells producing TNFα in response to peptide, cancer patients vs healthy donors (CD4+ T cells in PBMC)	lysis of T2 cells pulsed with the peptide by TDO123-132 specific cells (T2 cells)	affinity towards HLA-A2 (HLA-A2)	ex vivo IFNγ ELISPOT response [1]	frequency of TDO-specific CD8+ T cells by two color tetramer staining [2]
DLFNLSTYL (Peptide fragment of human TDO) [TDO364-372, Polypeptide fragment of human TDO]	statistically significant	presence of IFNγ producing T-cell	–	–	–	–	–	–	–	–	–
VSVILKLLVQQFSILETMTA (Peptide fragment of human TDO) [TDO118-137, long (20 amino acids) peptide comprising TDO123-132]	–	–	present in both cancer patients and healthy donors	no difference	restricted to cancer patients	restricted to cancer patients	more frequent in healthy donors	lysed	–	–	–
ILKEPVHGV [HIVpol468-476]	–	–	–	–	–	–	–	–	high affinity	–	–
TLLELVEAWL (Peptide fragment of human TDO) [TDO200-208, Polypeptide fragment of human TDO]	statistically significant	presence of IFNγ producing T-cell	–	–	–	–	–	–	–	detectable directly ex vivo	–
KLLVQQFSIL (Peptide fragment of human TDO) [TDO123-132, Polypeptide fragment of human TDO]	statistically significant	presence of IFNγ producing T-cell	–	–	–	–	–	lysed	–	detectable directly ex vivo	dramatically increased
RFQVPFQLLTSLMDIDSLMT (Peptide fragment of human TDO) [TDO303-322, long (20 amino acids) peptide comprising TDO309-317]	–	–	present in both cancer patients and healthy donors	no difference	restricted to cancer patients	restricted to cancer patients	more frequent in healthy donors	not	–	–	–
QLLTSLMDI (Peptide fragment of human TDO) [TDO309-317, Polypeptide fragment of human TDO]	statistically significant	presence of IFNγ producing T-cell	–	–	–	–	–	not	–	detectable directly ex vivo	dramatically increased

From patent US11878053B2, “Vaccine compositions comprising tryptophan 2,3-dioxygenase or fragments thereof” (IO Biotech ApS, priority 2014, dated 2024)
